In patent publication US20100215759A1 (priority 2009, published 2010):
Like-named read-outs stand apart in the source and are kept apart here.

How the values were obtained:
CB1 receptors = molecular target: T1, CB1 receptors (Mus musculus, UniProt P47746); experiment: biochemical; assay type: binding
T1 construct: the complete brain (excluding the cerebellum) and the spleen were quickly dissected and kept in ice; from tissue; host or cells: mouse brain (excluding cerebellum), membrane preparation
Description: (§1) The affinity of the synthesized compounds towards the CB1 and CB2 cannabinoidergic receptors was evaluated in vitro by radioreceptor binding studies using the method reported hereinunder.
(§2) The technique of the receptor binding allows to establish if, and with which affinity and specificity, a specific compound binds to a particular receptor. To evaluate the affinity of a specific compound to a particular receptor it is necessary to challenge in a particular tissue preparation wherein those specific receptors are present the compound to be tested with a radioactive labelled compound whose affinity for the same receptors is known. […] The amount of radioactivity present in the receptor-compound complex allows furthermore to estimate with great accuracy the amount of compound bound to the receptor. By said method it is therefore possible to establish quickly the affinity of a new compound towards a specific receptor and thus to determine its pharmacological activity. With the same experimental protocol it is possible to evaluate the affinity of the compound towards other receptors and thus establish its specificity degree toward said other receptors.
(§3) The food and water were ad libitum.
(§4) The procedure adopted, based on the use of the compound [^3H]-CP-55,940 (New England Nuclear, Boston, Mass., USA), requires the use of the mouse brain as biological tissue for the evaluation of the affinity towards the CB1 receptors and of the mouse spleen for the affinity assay for the CB2 receptors.
(§5) The animals were sacrificed by cervical dislocation and the complete brain (excluding the cerebellum) and the spleen were quickly dissected and kept in ice.
(§6) The tissue was homogenized in 15 volumes (weight/volume) of TME buffer (50 Mm Tris, 1 mM EDTA and 3 mM MgCl2, pH 7.4) by an Ultra-Turrax and subsequently centrifuged for 10 minutes at 1086×g in a centrifuge refrigerated at 4° C. The recovered supernatant was centrifuged at 45,000×g for 30 minutes at 4° C. by using a Beckman SW41 rotor and the obtained pellet was resuspended in 50 volumes of TME.
(§7) The thus obtained membranes (50-80 μg of proteins) were incubated in the presence of 1 nM of [^3H]-CP55.940 for 1 hour at 30° C. in a final volume of 0.5 ml of TME buffer containing 5 mg/ml of bovine serum albumin (BSA). The non specific binding was measured in the presence of CP55.940 at a 1 μM concentration.
(§8) All the experiments were carried out in polypropylene test tubes pretreated with Sigma-Cote (Sigma Chemical Co. Ltd., Poole, UK) for reducing non specific binding.
(§9) In order to determine the competitive inhibition binding curves, eight different concentrations of each compound were used.
(§10) Incubation was stopped by addition of TME buffer (at 4° C.) containing 5 mg/ml of BSA, and subsequent filtration under vacuum by Whatman GFC filters pretreated with 0.5% of polyethylamine (PEI) and by using a filtering device (Brandell, Gaithersburg, Md., USA). The filters were washed 3 times with […] of Tris HCl buffer (pH 7.4, 4° C.) containing 1 mg/ml of BSA and separately placed in plastic vials containing 4 ml of scintillating liquid (Ultima Gold MV, Packard).
(§11) The radioactivity present in the filters was determined by a scintillator spectrophotometer (Tricarb® 2100, Packard, Meridien, USA).
(§12) Protein determination was carried out by the Bradford method by using the protocol and the reactants supplied by Bio-Rad (Milano, Italy).

CB2 receptors = molecular target: T2, CB2 receptors (Mus musculus, UniProt P47936); experiment: biochemical; assay type: binding
T2 construct: the complete brain (excluding the cerebellum) and the spleen were quickly dissected and kept in ice; from tissue; host or cells: mouse spleen, membrane preparation
Description: as §1, §2, §3, §4, §5, §6, §7, §8, §9, §10, §11, §12

mice = experiment: Hypothermia test in vivo (rectal temperature after i.p. administration); conditions: for Body Temperature: 40 mg/kg i.p.
Description: It is known that the compounds having a cannabomimetic activity show in vivo the following effects: hypoactivity, hypothermia, analgesia and catalepsy (B. R. Martin et al., Pharmacol. Biochem. Behav.; 1991, 40, 471-478; P. B. Smith et al.; J. Pharmacol. Exp. Ther.; 1994, 270, 219-227). In order to display thermoregulating activity, the compounds acting towards the cannabinoidergic receptors must be able to pass the haematoencephalic barrier since the central site of said temperature regulating receptors is positioned in the preoptical front core of the hypothalamus (S. M. Rawls et al.; J. Pharmacol. Exp. Ther.; 2002, 303, 395-402). After treatment with CB1 agonist compounds passing the haemato-encephalic barrier, the cannabimimetic activity is evidenced by a reduction of the body temperature. CB1 antagonist compounds that pass the haemato-encephalic barrier, have no influence on the body temperature and show an antagonist activity towards the reference CB1 agonists as WIN 55.212-2, thus hindering the hypothermia induced by the latter.
The tests have been carried out in the experimental animal (mice) according to the indications of M. Rinaldi-Carmona et al. in FEBS Letters; 1994, 350, 240-244. Rectal temperature in mice was determined by an electronic thermometer inserted at a 2 mm depth. The measurements were carried out on mice acclimatized for one hour. […]
The experiment was carried out with the compound of example 3.1. Said compound was dispersed in a carrier formed of a physiological solution added with Tween 80 (3 drops). The so prepared samples were used for treating the animals at a dose of the compound of 40 mg/kg of body weight. The blank was the carrier.
Each test was repeated on ten animals: the results obtained are therefore the average of the determinations made on ten animals.

[1] = mouse brain membranes, 1 nM [3H]-CP55.940, read-out: CB1 (brain) Ki
[2] = mouse spleen membranes, 1 nM [3H]-CP55.940, read-out: CB2 (spleen) Ki

T2 sequence (P47936 whole entry): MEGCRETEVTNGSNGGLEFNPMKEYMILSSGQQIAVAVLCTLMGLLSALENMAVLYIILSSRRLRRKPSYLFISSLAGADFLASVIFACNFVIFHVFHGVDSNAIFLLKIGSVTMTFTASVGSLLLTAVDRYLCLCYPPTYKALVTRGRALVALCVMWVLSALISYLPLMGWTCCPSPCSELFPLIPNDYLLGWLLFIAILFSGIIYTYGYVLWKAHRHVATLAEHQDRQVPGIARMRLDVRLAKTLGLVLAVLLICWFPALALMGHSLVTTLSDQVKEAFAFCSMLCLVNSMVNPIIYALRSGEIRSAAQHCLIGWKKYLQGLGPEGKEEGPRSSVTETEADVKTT
T1 sequence (P47746 whole entry): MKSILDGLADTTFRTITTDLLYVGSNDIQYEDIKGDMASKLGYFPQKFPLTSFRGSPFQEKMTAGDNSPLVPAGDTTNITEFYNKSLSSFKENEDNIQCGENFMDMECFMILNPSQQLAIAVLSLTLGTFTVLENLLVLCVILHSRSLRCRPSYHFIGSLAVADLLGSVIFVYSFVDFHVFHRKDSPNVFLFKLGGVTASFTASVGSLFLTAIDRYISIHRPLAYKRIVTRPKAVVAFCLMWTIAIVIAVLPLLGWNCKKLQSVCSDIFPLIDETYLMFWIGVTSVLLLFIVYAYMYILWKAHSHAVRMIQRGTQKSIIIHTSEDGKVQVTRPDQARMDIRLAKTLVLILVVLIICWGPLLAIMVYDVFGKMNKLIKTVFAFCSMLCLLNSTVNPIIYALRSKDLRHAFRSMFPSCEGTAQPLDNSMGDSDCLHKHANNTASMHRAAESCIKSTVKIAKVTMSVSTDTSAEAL

Compound	Ki (CB1 receptors; [1]) [nM]	Ki (CB2 receptors; [2]) [nM]	Ki (CB1 receptors) [nM]	Ki (CB2 receptors) [nM]	Reduction of body temperature versus the carrier (mice; 40 mg/Kg)	Body Temperature (mice; 0 minutes from administration) [°C]	Body Temperature (mice; 15 minutes from administration) [°C]	Body Temperature (mice; 30 minutes from administration) [°C]	Body Temperature (mice; 60 minutes from administration) [°C]	Body Temperature (mice; 90 minutes from administration) [°C]	Body Temperature (mice; 120 minutes from administration) [°C]
CCOC(=O)c1nn(-c2ccc(S(N)(=O)=O)cc2)c2c1CCc1sccc1-2 [Compound (XA), 1-(4′-sulphonamidophenyl)-4,5-dihydro-1H-thieno[2,3-g]indazol-3-ethyl carboxylate]	> 5000	> 5000									
NC(=O)c1nn(-c2ccc(S(N)(=O)=O)cc2)c2c1CCc1sccc1-2 [Compound (XB), 1-(4′-sulphonamidophenyl)-4,5-dihydro-1H-thieno[2,3-g]indazol-3-carboxamide]	> 5000	> 5000									
Cc1ccc(Cn2nc(C(=O)NCC3CCC4CC3C4(C)C)c3c2-c2sc(C)cc2C3)cc1 (stereo not shown) [Example 3.1, N-myrtanyl-6-methyl-1-(4′-methylbenzyl)-1,4-dihydrothieno[3′,2′:4,5]cyclopenta[1,2-c]pyrazol-3-carboxamide]			83.6 ± 14.6	48.3 ± 2.6	significantly reduce the body temperature	37.9	36.1	34.8	35.0	36.7	37.2
